Earlier results on 26 compounds are cited in paper PMC7904743, “WIDOCK: a reactive docking protocol for virtual screening of covalent inhibitors” (Journal of Computer-Aided Molecular Design, 2021).

The structures appear in SMILES notation. Where two headings read alike, the source gives them in different places.

For data set [1] the following is noted: thiol reactivity, cited from earlier work.
The next data set relates to OTUB2. The settings on record: experimental actives if % labeling higher than 50%, cited from earlier work.
In the next data set the test system is NUDT7. The note with it: protein labeling at 200 μM; experimental actives if % labeling higher than 50%; cited from earlier work.
Setting [2] is: natural log of average rate constant k.
[3] abbreviates: natural logarithm of average rate constant.
Where [4] appears, read: natural log of average kinetic rate constant.
Setting [5] is: natural log of average rate constant.

For the compound `CCN(C(=O)CCl)C1CC1` [PCM-0102594, CCN(C(=O)CCl)C1CC1], the “ln(avg k)” value in data set [1] (setting [2]) and in data set [1] (setting [3]) was -17.070 throughout. Further, the OTUB2 % labeling in the data set on OTUB2 is given as 0%. In addition, the NUDT7 % labeling in the data set with NUDT7 is 0%.

With `Cc1cc(NC(=O)CCl)on1` [PCM-0102197, Cc1cc(NC(=O)CCl)on1], the “ln(avg k)” value in data set [1] (setting [2]) and in data set [1] (setting [3]) was -16.303 each time. Further, the OTUB2 % labeling in the data set on OTUB2 is 0%. In the data set on NUDT7, the NUDT7 % labeling is on record as 0%.

Turning to `N#Cc1ccccc1S(=O)(=O)N1CCN(C(=O)CCl)CC1` [PCM-0102395, N#Cc1ccccc1S(=O)(=O)N1CCN(C(=O)CCl)CC1], the “ln(avg k)” value in data set [1] (setting [2]) and in data set [1] (setting [3]) was -15.498 in each case. In addition, the OTUB2 % labeling in the data set on OTUB2 is on record as 0%. For the same compound, in the data set on NUDT7, the NUDT7 % labeling was 28%.

Regarding `O=C(CCl)NCc1ccc2c(c1)OCO2` [PCM-0102578, O=C(CCl)NCc1ccc2c(c1)OCO2], the “ln(avg k)” value in data set [1] (setting [2]) and in data set [1] (setting [3]) was -16.736 each time. The OTUB2 % labeling in the data set on OTUB2 is 16%. The NUDT7 % labeling with NUDT7 is 0%.

Consider `Cc1cc(NC(=O)CCl)ccc1N1CCCC1` [PCM-0102175, Cc1cc(NC(=O)CCl)ccc1N1CCCC1], for which the “ln(avg k)” value in data set [1] (setting [2]) and in data set [1] (setting [3]) was -15.490 in each case. The OTUB2 % labeling in the data set with OTUB2 is 39%. In addition, in the data set with NUDT7, the NUDT7 % labeling was 13%.

On to `CC(NC(=O)CCl)C(=O)N(C)C` (centres unmarked) [PCM-0102754, CC(NC(=O)CCl)C(=O)N(C)C], for which the “ln(avg k)” value in data set [1] (setting [4]) and in data set [1] (setting [5]) was -16.933 in each case. The OTUB2 % labeling in the data set with OTUB2 (OTUB2 protein labeling) was 0%. For the same compound, the NUDT7 % labeling in the data set on NUDT7 is reported as 0%.

Take `O=C(CCl)NNC(=O)c1ccco1` [PCM-0102985, O=C(CCl)NNC(=O)c1ccco1]: the “ln(avg k)” value in data set [1] (setting [4]) and in data set [1] (setting [5]) was -17.545 in each case. Moreover, the OTUB2 % labeling in the data set with OTUB2 (OTUB2 protein labeling) was 27%. In the data set with NUDT7, the NUDT7 % labeling is listed as 0%.

Consider `O=C(CCl)Nc1ccc2[nH]c(=O)[nH]c2c1` [PCM-0102866, O=C(CCl)Nc1ccc2[nH]c(=O)[nH]c2c1], for which the “ln(avg k)” value in data set [1] (setting [4]) and in data set [1] (setting [5]) was -15.702 in each case. The OTUB2 % labeling with OTUB2 (OTUB2 protein labeling) is 30%. In addition, in the data set with NUDT7, the NUDT7 % labeling is recorded as 0%.

As to `O=C(CCl)NC1CCSC1=O` (centres unmarked) [PCM-0103062, O=C(CCl)NC1CCSC1=O], the “ln(avg k)” value in data set [1] (setting [4]) and in data set [1] (setting [5]) was -17.032 in each case. For the same compound, in the data set on OTUB2 (OTUB2 protein labeling), the OTUB2 % labeling is 0%. The NUDT7 % labeling in the data set with NUDT7 is reported as 0%.

As to `COc1ccc(C2CCCN2C(=O)CCl)cc1` (centres unmarked) [PCM-0102938, COc1ccc(C2CCCN2C(=O)CCl)cc1], the “ln(avg k)” value in data set [1] (setting [4]) and in data set [1] (setting [5]) was -15.798 each time. Besides, the OTUB2 % labeling with OTUB2 (OTUB2 protein labeling) is 0%. Also, the NUDT7 % labeling in the data set on NUDT7 was 100%.

Turning to `COc1ccc(NC(=O)CCl)cc1` [PCM-0102156, COc1ccc(NC(=O)CCl)cc1], the “ln(avg k)” value in data set [1] (setting [2]) and in data set [1] (setting [3]) was -15.521 throughout. Besides, the OTUB2 % labeling in the data set on OTUB2 is reported as 52%. Moreover, in the data set with NUDT7, the NUDT7 % labeling is 0%.

For the compound `O=C(CCl)Nc1ccon1` [PCM-0103077, O=C(CCl)Nc1ccon1], the “ln(avg k)” value in data set [1] (setting [4]) and in data set [1] (setting [5]) was -16.220 each time. For the same compound, in the data set with OTUB2 (OTUB2 protein labeling), the OTUB2 % labeling is reported as 30%. Further, the NUDT7 % labeling in the data set on NUDT7 is listed as 0%.

For `O=C(CCl)N1CCCc2cc(S(=O)(=O)N3CCCC3)ccc21` [PCM-0102625, O=C(CCl)N1CCCc2cc(S(=O)(=O)N3CCCC3)ccc21], the “ln(avg k)” value in data set [1] (setting [2]) and in data set [1] (setting [3]) was -15.992 each time. The OTUB2 % labeling in the data set with OTUB2 is given as 0%. Also, the NUDT7 % labeling with NUDT7 is reported as 0%.

As for `CC(C)N(C(=O)CCl)C1CCCCC1` [PCM-0102941, CC(C)N(C(=O)CCl)C1CCCCC1], the “ln(avg k)” value in data set [1] (setting [4]) and in data set [1] (setting [5]) was -16.528 each time. Moreover, the OTUB2 % labeling in the data set with OTUB2 (OTUB2 protein labeling) is on record as 0%. In the data set on NUDT7, the NUDT7 % labeling was 17%.

Take `O=C(CCl)NC(=O)NCc1ccccc1` [PCM-0102122, O=C(CCl)NC(=O)NCc1ccccc1]: the “ln(avg k)” value in data set [1] (setting [2]) and in data set [1] (setting [3]) was -16.001 each time. Besides, in the data set with OTUB2, the OTUB2 % labeling was 0%. Also, in the data set with NUDT7, the NUDT7 % labeling was 0%.

Regarding `NC(=O)c1ccsc1NC(=O)CCl` [PCM-0102314, NC(=O)c1ccsc1NC(=O)CCl], the “ln(avg k)” value in data set [1] (setting [2]) and in data set [1] (setting [3]) was -15.717 in each case. Also, in the data set with OTUB2, the OTUB2 % labeling is 0%. Further, in the data set on NUDT7, the NUDT7 % labeling is 18%.

Regarding `CC(C)(C)c1cc(NC(=O)CCl)on1` [PCM-0102348, CC(C)(C)c1cc(NC(=O)CCl)on1], the “ln(avg k)” value in data set [1] (setting [2]) and in data set [1] (setting [3]) was -15.607 throughout. Moreover, the OTUB2 % labeling in the data set with OTUB2 is recorded as 0%. Also, the NUDT7 % labeling in the data set on NUDT7 was 0%.

Take `O=C(CCl)Nc1nc(-c2ccc(F)cc2)cs1` [PCM-0102809, O=C(CCl)Nc1nc(-c2ccc(F)cc2)cs1]: the “ln(avg k)” value in data set [1] (setting [4]) and in data set [1] (setting [5]) was -15.559 throughout. The OTUB2 % labeling in the data set on OTUB2 (OTUB2 protein labeling) was 21%. Besides, the NUDT7 % labeling with NUDT7 is recorded as 37%.

Regarding `O=C(CCl)N1CCN(Cc2ccccc2F)CC1` [PCM-0102387, O=C(CCl)N1CCN(Cc2ccccc2F)CC1], the “ln(avg k)” value in data set [1] (setting [2]) and in data set [1] (setting [3]) was -15.308 throughout. In addition, the OTUB2 % labeling with OTUB2 was 32%. In addition, the NUDT7 % labeling in the data set with NUDT7 is recorded as 0%.

For the compound `COc1cc(Cl)c(C)cc1NC(=O)CCl` [PCM-0102210, COc1cc(Cl)c(C)cc1NC(=O)CCl], the “ln(avg k)” value in data set [1] (setting [2]) and in data set [1] (setting [3]) was -15.971 throughout. Also, the OTUB2 % labeling in the data set on OTUB2 is recorded as 25%. Also, the NUDT7 % labeling in the data set with NUDT7 is 0%.

Consider `CC(NC(=O)CCl)c1cccc(Cl)c1` (centres unmarked) [PCM-0102190, CC(NC(=O)CCl)c1cccc(Cl)c1], for which the “ln(avg k)” value in data set [1] (setting [2]) and in data set [1] (setting [3]) was -16.294 throughout. Further, the OTUB2 % labeling with OTUB2 is on record as 37%. Besides, in the data set with NUDT7, the NUDT7 % labeling is recorded as 42%.

In the case of `CC(C)(C)NC(=O)CNC(=O)CCl` [PCM-0102817, CC(C)(C)NC(=O)CNC(=O)CCl], the “ln(avg k)” value in data set [1] (setting [4]) and in data set [1] (setting [5]) was -16.378 in each case. In addition, the OTUB2 % labeling in the data set on OTUB2 (OTUB2 protein labeling) is on record as 41%. Moreover, the NUDT7 % labeling with NUDT7 is on record as 0%.

Turning to `O=C(CCl)N1CCN(S(=O)(=O)c2cccc(F)c2)CC1` [PCM-0102327, O=C(CCl)N1CCN(S(=O)(=O)c2cccc(F)c2)CC1], the “ln(avg k)” value in data set [1] (setting [2]) and in data set [1] (setting [3]) was -15.130 throughout. Further, the OTUB2 % labeling in the data set with OTUB2 is listed as 0%. Moreover, in the data set with NUDT7, the NUDT7 % labeling is listed as 13%.

As for `O=C(CCl)Nc1cc(Cl)ccc1C(=O)O` [PCM-0102412, O=C(CCl)Nc1cc(Cl)ccc1C(=O)O], the “ln(avg k)” value in data set [1] (setting [2]) and in data set [1] (setting [3]) was -17.207 each time. In the data set with OTUB2, the OTUB2 % labeling is 7%. Besides, the NUDT7 % labeling in the data set with NUDT7 was 16%.

With `CC(C)(C)OC(=O)N1CCCC(CNC(=O)CCl)C1` (centres unmarked) [PCM-0102923, CC(C)(C)OC(=O)N1CCCC(CNC(=O)CCl)C1], the “ln(avg k)” value in data set [1] (setting [4]) and in data set [1] (setting [5]) was -16.613 throughout. For the same compound, the OTUB2 % labeling in the data set on OTUB2 (OTUB2 protein labeling) is listed as 20%. In the data set with NUDT7, the NUDT7 % labeling is recorded as 0%.

`CN(Cc1cccs1)C(=O)CCl` [PCM-0102636, CN(Cc1cccs1)C(=O)CCl]: the “ln(avg k)” value in data set [1] (setting [2]) and in data set [1] (setting [3]) was -15.483 in each case. Besides, the OTUB2 % labeling in the data set with OTUB2 is reported as 0%. For the same compound, the NUDT7 % labeling in the data set on NUDT7 was 17%.
